Measurements reported in patent publication US6428968B1, “Combined therapy with a chemotherapeutic agent and an oncolytic virus for killing tumor cells in a subject” (The Trustees of the University of Pennsylvania, priority 1999, dated 2002).
Where “and” joins values, the source holds several entries; their conditions need not be identical. Equal values may be shown once.

Key:
HSV-1716 in A549 cells = experiment: One step growth curve, A549 cells; format: cell-based, herpes simplex virus type 1; settings: cell line A549; low dose mitomycin C (0.1 micromolar)
HSV-1716 in H460 cells = experiment: One step growth curve, H460 cells (black plaque assay); format: cell-based, herpes simplex virus type 1; settings: for burst size of HSV-1716: H460, MOI 0.1
Method: H460 cells were incubated overnight in six-well plates at a density of about 300,000 cells per well under standard culture condition. Following this incubation, the cells were infected with HSV-1716 at an MOI of 0.1 pfu. In a parallel experiment with five different experimental arms, the following procedures were performed. In the first and second arms, the cells were incubated in the presence of 0.1 micromolar mitomycin C or an equivalent additional volume of culture medium. Mediun or medium containing mitomycin C was added to the wells for 3 hours, either immediately before (in the first arm) or immediately following (in the second arm) infection of the cells with HSV-1716. In the other three arms, medium containing 0.1, 1.0, or 3.0 micromolar mitomycin C was added to the wells for 48 hours following infection of the cells with HSV-1716.
Cells were harvested from individual wells 1, 6, 19, 24, or 48 hours following infection. Cells were harvested by scraping cells from the walls of their well into the medium contained within the well. Harvested cells were stored at −80° C. Cell samples were titered by black plaque assay using baby hamster kidney cell (BHK) monolayers as described (Kucharczuk et al., 1997, Cancer Res. 57:466-471).
In order to examine what effect mitomycin C might have on viral replication, one step growth curve experiments were performed. H460 cells were infected with HSV-1716 at an MOI of 0.1, and then 0.1 or 1.0 or 3.0 micromolar mitomycin C was added to the cell culture medium. At selected times, cells were harvested and titered by black plaque assay as described herein. […] Addition of 1.0 or 3.0 micromolar mitomycin C for 48 hours after infection reduced burst size (13.7 and 0.2, respectively).

H460 tumors = experiment: In vivo xenograft flank model; set-up: species or system SCID mice; settings: 22 days after injection of H460 cells
Method: The combined effects of mitomycin C and HSV-1716 using NSCLC tumors was assessed in vivo as follows. Cells of line H460 were implanted subcutaneously in the flanks of severe combined immunodeficient (SCID) mice. […] HSV-1716 was injected directly into individual tumors at a dose of 4×10^6 plaque forming units (pfu) in 200 microliters of medium. Control mice were injected with medium alone. Twenty-four hours later, 0.17 milligrams per kilogram body weight mitomycin C or an equivalent amount of PBS was administered to separate groups of HSV-treated and control mice. Tumor volume was estimated in all mice at regular intervals. Tumor volume in cubic millimeters was estimated using the formula
where TLmm was tumor length in millimeters and TWmm was tumor width in millimeters. Tumor growth curves were generated using the estimated values for tumor volume. After a period of 3-4 weeks, mice were sacrificed and their tumors were weighed.
In order to assess the oncolytic effect of mitomycin C in combination with HSV-1716, a murine xenograft model was used. […] These doses were designated ‘sufficient doses.’ H460 tumor cells were injected into the flanks of SCID mice. […] At that time, about 4×10^6 pfu of HSV-1716 or an equivalent volume of culture medium was injected into individual tumors. […]

[1] = test system: H460 (large cell carcinoma) cells; experiment: In vitro cell viability assay, H460 cells; format: cell-based, human; settings: cell line H460; HSV-1716 at an MOI of 0.1, mitomycin C at 0.1 micromolar
Method: Individual chemotherapeutic agents were then added to selected wells.
Each treatment experiment was performed at least twice.

## CO[C@@]12[C@H](COC(N)=O)C3=C(C(=O)C(C)=C(N)C3=O)N1C[C@@H]1N[C@@H]12 [mitomycin C]
HSV-1716 in A549 cells
  effect on burst size of HSV-1716: Neither Augmented nor Reduced
HSV-1716 in H460 cells; 1.0 micromolar mitomycin C for 48 hours after infection
  burst size of HSV-1716: 13.7
HSV-1716 in H460 cells; 3.0 micromolar mitomycin C for 48 hours after infection
  burst size of HSV-1716: 0.2
HSV-1716 in H460 cells; post-treatment with 0.1 micromolar mitomycin C for 3 hours
  burst size of HSV-1716: 57.1
HSV-1716 in H460 cells; post-treatment with 0.1 micromolar mitomycin C for 48 hours
  burst size of HSV-1716: 53.3
HSV-1716 in H460 cells; pre-treatment with 0.1 micromolar mitomycin C for 3 hours
  burst size of HSV-1716: 42.1
HSV-1716 in H460 cells; cell line H460, low dose mitomycin C (0.1 micromolar)
  effect on burst size of HSV-1716: Neither Augmented nor Reduced
H460 tumors; HSV-1716 4×10^6 pfu intratumoral day 7, mitomycin C 0.17 mg/kg i.v. day 8, n=14
  final mean tumor burden (tumor weight): 1.122±0.070 grams
H460 tumors; HSV-1716 4×10^6 pfu intratumoral, mitomycin C 0.17 mg/kg i.v.
  reduction of tumor burden relative to the control: 20.2% and 21.8%
[1]
  cell survival: 96.7%
